Experimental data taken from patent US20240400564A1 (Syndax Pharmaceuticals, Inc, priority 2021, published 2024).

Tests used:
[1] = test system: MLLr leukemia cell line MV4-11; experiment: Cell proliferation assay MV4;11 (CellTiter-Glo, 72 hours); assay type: cell-based; conditions: Homo sapiens; MV4-11 cells, 72 hours, CellTiter-Glo; read-out: MV4; 11 IC50
Summary of the method: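 Cells in IMDM/10% FBS, seeded from a 15,000 cells/ml suspension, were exposed for 72 h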

[2] = target: T1, Menin-MLL (Homo sapiens, UniProt O00255); experiment: Determination of binding constants to Menin-MLL (HTRF, EC50 and Ki); conditions: 0.25 nM H-FL-Menin, 3.2 nM FITC-MLL-4-43, 24 hr incubation
T1 sequence (O00255 1-610): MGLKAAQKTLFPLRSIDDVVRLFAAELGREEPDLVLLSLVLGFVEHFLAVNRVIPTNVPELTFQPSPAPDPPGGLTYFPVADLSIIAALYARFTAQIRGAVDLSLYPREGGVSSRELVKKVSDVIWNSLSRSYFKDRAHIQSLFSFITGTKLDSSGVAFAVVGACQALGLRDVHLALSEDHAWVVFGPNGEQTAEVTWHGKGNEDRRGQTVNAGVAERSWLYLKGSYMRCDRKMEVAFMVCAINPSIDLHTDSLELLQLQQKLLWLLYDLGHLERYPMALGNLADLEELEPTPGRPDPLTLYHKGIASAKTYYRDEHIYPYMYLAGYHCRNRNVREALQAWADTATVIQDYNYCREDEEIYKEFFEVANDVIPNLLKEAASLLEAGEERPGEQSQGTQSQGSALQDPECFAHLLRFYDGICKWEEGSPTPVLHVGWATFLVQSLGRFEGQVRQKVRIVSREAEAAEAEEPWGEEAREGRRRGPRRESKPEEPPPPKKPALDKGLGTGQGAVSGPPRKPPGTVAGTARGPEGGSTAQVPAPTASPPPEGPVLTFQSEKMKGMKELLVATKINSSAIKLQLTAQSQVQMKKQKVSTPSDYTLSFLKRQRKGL

[3] = target: T2, human Menin and N-terminal portion of human MLL (amino acids 4-43) (Homo sapiens, UniProt O00255); experiment: Menin-MLL competition assay (HTRF); assay type: binding; conditions: 1 hr incubation
T2 construct: H-FL-Menin diluted to 4 nM in assay buffer
T2 sequence (O00255 1-610): T1 sequence (O00255 1-610)
Summary of the method: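 HTRF competition: 1 nM His-tagged full-length Menin with 2 nM Tb-anti-His6 and 1 nM FITC-MLL(4-43), 1 h at room temperature in Tris pH 7.4 buffer with DTT, BSA, Triton X-100; 3.16-fold compound series, 2% DMSO. Ratio 520/485 normalized to DMSO and 1 μM reference-compound controls for IC50.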

[4] = target: hERG (Homo sapiens, UniProt Q12809); experiment: Patch clamp assay (hERG tail currents, whole-cell)
Chain of hERG (Q12809 whole entry): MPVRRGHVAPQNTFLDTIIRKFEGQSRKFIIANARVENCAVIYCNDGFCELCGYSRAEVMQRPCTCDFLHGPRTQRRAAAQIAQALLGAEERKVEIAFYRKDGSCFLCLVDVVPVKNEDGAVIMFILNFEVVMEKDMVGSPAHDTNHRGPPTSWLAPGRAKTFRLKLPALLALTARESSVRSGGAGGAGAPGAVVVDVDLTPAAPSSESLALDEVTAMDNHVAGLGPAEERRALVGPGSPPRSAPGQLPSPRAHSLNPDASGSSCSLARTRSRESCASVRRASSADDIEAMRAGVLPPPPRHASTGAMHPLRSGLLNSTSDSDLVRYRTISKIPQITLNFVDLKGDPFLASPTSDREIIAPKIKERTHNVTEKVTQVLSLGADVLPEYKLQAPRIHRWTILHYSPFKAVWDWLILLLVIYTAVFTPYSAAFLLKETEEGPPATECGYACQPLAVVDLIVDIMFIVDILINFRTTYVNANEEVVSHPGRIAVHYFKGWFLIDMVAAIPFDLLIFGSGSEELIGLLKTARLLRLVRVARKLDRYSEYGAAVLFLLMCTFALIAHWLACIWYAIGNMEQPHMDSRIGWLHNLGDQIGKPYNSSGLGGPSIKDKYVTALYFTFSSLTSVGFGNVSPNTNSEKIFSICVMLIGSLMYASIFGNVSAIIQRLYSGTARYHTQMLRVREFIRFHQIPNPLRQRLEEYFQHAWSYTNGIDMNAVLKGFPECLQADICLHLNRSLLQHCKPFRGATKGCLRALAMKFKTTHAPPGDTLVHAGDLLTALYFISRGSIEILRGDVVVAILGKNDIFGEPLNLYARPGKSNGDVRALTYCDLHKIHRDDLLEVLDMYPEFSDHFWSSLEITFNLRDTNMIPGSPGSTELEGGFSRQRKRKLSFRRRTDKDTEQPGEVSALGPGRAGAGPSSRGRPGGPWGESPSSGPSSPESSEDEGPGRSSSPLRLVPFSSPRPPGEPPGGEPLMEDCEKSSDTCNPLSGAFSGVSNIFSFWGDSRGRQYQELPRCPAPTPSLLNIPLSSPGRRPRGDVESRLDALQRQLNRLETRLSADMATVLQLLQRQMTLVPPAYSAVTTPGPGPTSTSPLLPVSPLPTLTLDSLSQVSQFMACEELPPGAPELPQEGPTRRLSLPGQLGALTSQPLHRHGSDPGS

CCS(=N)(=O)N[C@@H]1CC[C@@H](CN2CCC3(CC2)CN(c2ncncc2Oc2ccc(F)cc2C(=O)N(C(C)C)C(C)C)C3)OC1 (mixture of isomers) [Example 225, 2-((4-(7-(((2S,5R)-5-(Ethylsulfonoamidimidamido)tetrahydro-2H-pyran-2-yl)methyl)-2,7-diazaspiro[3.5]nonan-2-yl)pyrimidin-5-yl)oxy)-5-fluoro-N,N-diisopropylbenzamide]
IC50 [1]: 0.1 to 1 µM | Ki [2]: < 0.001 µM

CCCNC(=O)N[C@@H]1CC[C@@H](CN2CCC3(CC2)CN(c2ncncc2Oc2ccc(F)cc2C(=O)N(CC)C(C)C)C3)OC1 [Example 38, N-Ethyl-5-fluoro-N-isopropyl-2-((4-(7-(((2S,5R)-5-(3-propylureido)tetrahydro-2H-pyran-2-yl)methyl)-2,7-diazaspiro[3.5]nonan-2-yl)pyrimidin-5-yl)oxy)benzamide]
Menin-MLL Ki HTRF Assay: EC50 (nM) [2]: ++ (250 nM and <100 nM) | IC50 [3]: < 0.1 µM

CCN(C(=O)c1cc(F)ccc1Oc1cncnc1N1CC2(CCN(C[C@@H]3CC[C@@H](NC(=O)NCC(F)F)CO3)CC2)C1)C(C)C [Example 41, 2-((4-(7-(((2S,5R)-5-(3-(2,2-Difluoroethyl)ureido)tetrahydro-2H-pyran-2-yl)methyl)-2,7-diazaspiro[3.5]nonan-2-yl)pyrimidin-5-yl)oxy)-N-ethyl-5-fluoro-N-isopropylbenzamide]
Menin-MLL Ki HTRF Assay: EC50 (nM) [2]: ++ (250 nM and <100 nM) | IC50 [3]: < 0.1 µM

CCS(=O)(=O)N[C@@H]1CC[C@@H](CN2CCC3(CC2)CN(c2ncncc2Oc2ccc(F)cc2C(=O)N(C(C)C)[C@H]2C[C@@H](O)C2)C3)OC1 [Example 50, 2-((4-(7-(((2S,5R)-5-(Ethylsulfonamido)tetrahydro-2H-pyran-2-yl)methyl)-2,7-diazaspiro[3.5]nonan-2-yl)pyrimidin-5-yl)oxy)-5-fluoro-N-((1s,3s)-3-hydroxycyclobutyl)-N-isopropylbenzamide]
IC50 [1]: < 0.1 µM | IC50 [3]: < 0.1 µM

CCN(C(=O)c1cc(F)ccc1Oc1cncnc1N1CC2(CCN(C[C@H]3CC[C@H](NS(=O)(=O)CC)CO3)CC2)C1)C(C)C [Example 52, N-Ethyl-2-((4-(7-(((2R,5S)-5-(ethylsulfonamido)tetrahydro-2H-pyran-2-yl)methyl)-2,7-diazaspiro[3.5]nonan-2-yl)pyrimidin-5-yl)oxy)-5-fluoro-N-isopropylbenzamide]
EC50 [2]: ≤ 0.05 µM

CC(C)N(C(=O)c1cc(F)ccc1Oc1cncnc1N1CC2(CCN(C[C@@H]3CC[C@@H](NS(=O)(=O)C(C)C)CO3)CC2)C1)[C@@H]1CCOC1 [Example 132, 5-Fluoro-N-isopropyl-2-((4-(7-(((2S,5R)-5-((1-methylethyl)sulfonamido)tetrahydro-2H-pyran-2-yl)methyl)-2,7-diazaspiro[3.5]nonan-2-yl)pyrimidin-5-yl)oxy)-N-((R)-tetrahydrofuran-3-yl)benzamide]
EC50 [2]: 0.111 µM

CC(C)N(C(=O)c1cc(F)ccc1Oc1cncnc1N1CC2(CCN(C[C@@H]3CC[C@@H](NS(=O)(=O)C4CC4)CO3)CC2)C1)[C@H]1CCOC1 [Example 176, 2-((4-(7-(((2S,5R)-5-(Cyclopropanesulfonamido)tetrahydro-2H-pyran-2-yl)methyl)-2,7-diazaspiro[3.5]nonan-2-yl)pyrimidin-5-yl)oxy)-5-fluoro-N-isopropyl-N-((S)-tetrahydrofuran-3-yl)benzamide]
IC50 [4]: > 50 µM | hERG % Remaining ([4]; 10 μM compound): +++ (≥66%) | hERG % Remaining ([4]; 30 μM compound): +++ (≥66%) | hERG % Remaining ([4]; 100 μM compound): +++ (≥66%) | IC50 [1]: < 0.1 µM | Ki [2]: < 0.001 µM

CC(C)N(C(=O)c1cc(F)ccc1Oc1cncnc1N1CC2(CCN(C[C@@H]3CC[C@@H](NS(=O)(=O)N(C)C)CO3)CC2)C1)[C@H]1CCOC1 [Example 177, 2-((4-(7-(((2S,5R)-5-((N,N-Dimethylsulfamoyl)amino)tetrahydro-2H-pyran-2-yl)methyl)-2,7-diazaspiro[3.5]nonan-2-yl)pyrimidin-5-yl)oxy)-5-fluoro-N-isopropyl-N-((S)-tetrahydrofuran-3-yl)benzamide]
hERG % Remaining ([4]; 10 μM compound): +++ (≥66%) | hERG % Remaining ([4]; 30 μM compound): +++ (≥66%) | IC50 [1]: < 0.1 µM | Ki [2]: < 0.001 µM

CCN(C(=O)c1cc(F)ccc1Oc1cncnc1N1CC2(CCN(C[C@@H]3CC[C@@H](NC(=O)Nc4ccccc4)CO3)CC2)C1)C(C)C [Example 215, N-Ethyl-5-fluoro-N-isopropyl-2-((4-(7-(((2S,5R)-5-(3-phenylureido)tetrahydro-2H-pyran-2-yl)methyl)-2,7-diazaspiro[3.5]nonan-2-yl)pyrimidin-5-yl)oxy)benzamide]
Menin-MLL Ki HTRF Assay: EC50 (nM) [2]: ++ (250 nM and <100 nM)

CCS(=O)(=O)N[C@@H]1CC[C@@H](CN2CCC3(CC2)CN(c2ncncc2Oc2ccc(F)cc2C(=O)N(C(C)C)[C@H]2C[C@H](F)C2)C3)OC1 [Example 243, 2-((4-(7-(((2S,5R)-5-(Ethylsulfonamido)tetrahydro-2H-pyran-2-yl)methyl)-2,7-diazaspiro[3.5]nonan-2-yl)pyrimidin-5-yl)oxy)-5-fluoro-N-((1r,3r)-3-fluorocyclobutyl)-N-isopropylbenzamide]
IC50 [1]: < 0.1 µM | Ki [2]: < 0.001 µM

CCS(=O)(=O)N[C@@H]1CC[C@@H](CN2CCC3(CC2)CN(c2ncncc2Oc2ccc(F)cc2C(=O)N(C(C)C)[C@H]2C[C@@H](F)C2)C3)OC1 [Example 244, 2-((4-(7-(((2S,5R)-5-(ethylsulfonamido)tetrahydro-2H-pyran-2-yl)methyl)-2,7-diazaspiro[3.5]nonan-2-yl)pyrimidin-5-yl)oxy)-5-fluoro-N-((1s,3s)-3-fluorocyclobutyl)-N-isopropylbenzamide]
hERG % Remaining ([4]; 10 μM compound): +++ (≥66%) | hERG % Remaining ([4]; 30 μM compound): ++ (233% and ≤66%) | IC50 [1]: < 0.1 µM | Ki [2]: < 0.001 µM

CCS(=O)(=O)N[C@@H]1CC[C@@H](CN2CCC3(CC2)CN(c2ncncc2Oc2ccc(F)cc2C(=O)N(C(C)C)[C@H]2C[C@@H](C(F)F)C2)C3)OC1 [Example 245, N-((1s,3s)-3-(difluoromethyl)cyclobutyl)-2-((4-(7-(((2S,5R)-5-(ethylsulfonamido)tetrahydro-2H-pyran-2-yl)methyl)-2,7-diazaspiro[3.5]nonan-2-yl)pyrimidin-5-yl)oxy)-5-fluoro-N-isopropylbenzamide]
IC50 [1]: < 0.1 µM | Ki [2]: < 0.001 µM

CCS(=O)(=O)N[C@@H]1CC[C@@H](CN2CCC3(CC2)CN(c2ncncc2Oc2ccc(F)cc2C(=O)N(C(C)C)[C@H]2C[C@H](C(F)F)C2)C3)OC1 [Example 246, N-((1r,3r)-3-(Difluoromethyl)cyclobutyl)-2-((4-(7-(((2S,5R)-5-(ethylsulfonamido)tetrahydro-2H-pyran-2-yl)methyl)-2,7-diazaspiro[3.5]nonan-2-yl)pyrimidin-5-yl)oxy)-5-fluoro-N-isopropylbenzamide]
IC50 [1]: < 0.1 µM | Ki [2]: < 0.001 µM
